Earlier results as cited in US20170101350A1, “SYNTHETIC ACID COMPOSITIONS AND USES THEREOF” (priority 2014, published 2017).

Conditions: death in 2-3 minutes

In the case of `Cl` [hydrogen chloride gas, hydrogen chloride], the “levels at which death can occur” value is listed as 1300-2000 ppm.
